Laboratory results reported in publication PMC10949600, “Iso-mukaadial acetate and ursolic acid acetate bind to Plasmodium Falciparum heat shock protein 70: towards targeting parasite protein folding pathway” (BMC Chemistry, 2024).
Like-named read-outs stand apart in the source and are kept apart here.

Target: T1, PfHsp70-1 (Plasmodium falciparum, UniProt P11144)
T1 construct: recombinant PfHsp70-1 (pQE30/PfHsp70-1)
Experiment: SPR, PfHsp70-1 immobilized on CMD 3-D gold chip by amine coupling
Type: binding
Excerpt: SPR, PfHsp70-1 immobilized on CMD 3-D gold chip by amine coupling on PfHsp70-1 | PfHsp70 binds to either of the two compounds within the micromolar range of affinity

T1 sequence (P11144 whole entry): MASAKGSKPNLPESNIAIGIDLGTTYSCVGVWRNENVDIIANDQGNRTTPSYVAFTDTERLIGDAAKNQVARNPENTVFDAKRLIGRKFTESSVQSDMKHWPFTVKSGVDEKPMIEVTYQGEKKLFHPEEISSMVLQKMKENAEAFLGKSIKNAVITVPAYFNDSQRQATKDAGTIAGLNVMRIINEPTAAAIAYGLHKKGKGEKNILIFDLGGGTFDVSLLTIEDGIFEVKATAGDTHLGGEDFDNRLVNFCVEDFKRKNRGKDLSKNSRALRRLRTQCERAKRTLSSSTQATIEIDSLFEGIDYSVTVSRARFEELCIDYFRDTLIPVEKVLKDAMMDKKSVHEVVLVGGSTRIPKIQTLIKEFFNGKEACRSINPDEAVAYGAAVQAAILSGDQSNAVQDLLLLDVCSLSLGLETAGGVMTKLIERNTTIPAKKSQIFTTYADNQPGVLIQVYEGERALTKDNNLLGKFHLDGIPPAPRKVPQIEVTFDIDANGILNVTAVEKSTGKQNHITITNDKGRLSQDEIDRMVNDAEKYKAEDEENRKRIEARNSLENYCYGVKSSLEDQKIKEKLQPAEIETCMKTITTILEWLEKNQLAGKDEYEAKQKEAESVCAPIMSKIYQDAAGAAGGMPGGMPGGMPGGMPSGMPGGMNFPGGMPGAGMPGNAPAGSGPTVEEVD

Row | Compound | Kd [µM] | Kd (read-out: KD) [µM]
1 | CC(=O)O[C@H]1CC[C@]2(C)[C@H]3CC=C4[C@@H]5[C@@H](C)[C@H](C)CC[C@]5(C(=O)O)CC[C@@]4(C)[C@]3(C)CC[C@H]2C1(C)C [UAA, ursolic acid acetate] | 4.03 | 
2 | iso-mukaadial acetate [IMA] |  | 9.89
